Consider 1 molecule from patent publication US9884046B1, “Method of treating lung cancer” (Macau University of Science and Technology, priority 2017, dated 2018).

As a reminder, the IC50 is the midpoint of a concentration-inhibition curve. A higher IC50 goes with lower potency. Broadly, the Kd is the equilibrium constant for the complex coming apart.

Test [1] relates to phosphorylation of CRAF (p-CRAF). As to the kind of experiment: Western blot of KRAS downstream signaling. It counts as cell-based. Particulars: H2122, H460 and H358 cells, 24, 48 and 72 h, versus untreated cells. As to the method:
After treatment with compound 0375-0604 for 24 h, 48 h or 72 h, radioimmunoprecipitation assay (RIPA) lysis buffer which contains protease and phosphatase inhibitors, was added to extract the whole cell protein. Bio-Rad DC™ protein assay kit (Bio-Rad, Philadelphia, Pa., USA) was used to quantify the protein. 30 μg protein lysate were loaded and separated by 10% sodium dodecyl sulfate (SDS)-polyacrylamide gel electrophoresis and transferred to a nitrocellulose (NC) membrane. The membranes were incubated with the primary antibody (1:2000) and then with a fluorescence-conjugated secondary antibody (1:10000). Glyceraldehyde 3-phosphate dehydrogenase (GAPDH) was used as the loading control for normalization. The signal of the membranes was scanned with a LI-COR Odyssey Scanner (Belfast, Me., USA).
Untreated cells were used as control.
In general terms: In western blotting, separated proteins are transferred to a membrane and probed.

Test [2] relates to H358 cells. The test can be described thus: MTT cell viability assay, H358. It counts as cell-based. The conditions noted are these: Homo sapiens, NCI-H358, H358 (KRAS G12C). As to the method: (§1) H2122, H460 and H358 cells were purchased from ATCC and cultivated with Roswell Park Memorial Institute (RPMI) 1640 medium supplemented with 10% fetal bovine serum (Gibco, Big Cabin, Oklahoma, Me., USA), 100 U/mL penicillin and 100 μg/mL streptomycin (Gibco, Big Cabin, Oklahoma, Me., USA). All the cells were cultivated at 37° C. with 5% CO2 incubator. Cells were seeded on a 96-well microplate with 3000, 4000 or 5000 cells/well, and were cultured overnight for cell adhesion. Different concentrations of compound 0375-0604 were added to the microplates, and the plates were incubated for 24, 48 or 72 h. Each dosage was repeated as triplicate. 10 μL MTT (5 mg/mL) solution was added to every well. After incubation for 4 h, 100 μL dimethyl sulfoxide (DMSO) was added to each well. After shaking for 15 min, the absorbance of the plate was measured at 570 nm (absorbance) and 650 nm (reference) by a microplate reader (Tecan, Morrisville, N.C., USA).
(§2) The cytotoxicity of compound 0375-0604 was determined by MTT assay. The effect of compound 0375-0604 on three NSCLC cell lines, H2122, H358 and H460 was examined. H2122, H358 and H460 are harboring KRAS-activating mutations. H2122 and H358 cells have mutant KRAS that includes an amino acid substitution from a glycine to a cysteine at codon or position 12 (i.e. mutant KRAS ^G12C). H460 cells have mutant KRAS that includes an amino acid substitution from a glutamine to a histidine at codon or position 61 (i.e. mutant KRAS Q61H).
(§3) Cells were incubated with compound 0375-0604 at different concentrations (0, 25, 50, 100 μM) for 24, 48, and 72 h. As shown in FIGS. 3A-3C, the cell viability of three NSCLC cell lines was decreased by the treatment of compound 0375-0604 in a dose-dependent and time-dependent manner.
For orientation: Tetrazolium dyes change colour on reduction, which living cells bring about.

Another test has as its system H2122 cells. As to the kind of experiment: MTT cell viability assay, H2122. It counts as cell-based. Particulars: Homo sapiens, NCI-H2122, H2122 (KRAS G12C). As to the method:
as §1, §2, §3

The target in the next test is KRAS (Homo sapiens, UniProt P01116). The test can be described thus: Bio-layer interferometry, His-KRAS on Ni-NTA biosensors. It counts as binding. Particulars: BLI. As to the method: The interaction between KRAS and compound 0375-0604 was determined by bio-layer interferometry using an Octet Red 96 instrument (FortéBio Inc.). Ni-NTA Biosensors tips (FortéBio, Inc., Menlo Park, Calif.) were prewetted with PBS to establish a baseline before immobilization. His-KRAS was then immobilized onto Ni-NTA Biosensors. The experiments comprised five steps: (1) baseline acquisition, (2) KRAS loading onto the sensor, (3) second baseline acquisition, (4) association of compound 0375-0604 for the measurement of kon, and (5) dissociation of compound 0375-0604 for the measurement of koff. Six concentrations of compound 0375-0604 were used for detection. The association and dissociation plot and kinetic constants were obtained with FortéBio data analysis software. Equilibrium dissociation constants (Kd) were calculated in the ratio of koff to kon.
Sequence of KRAS (P01116 1-188 isoform P01116-2): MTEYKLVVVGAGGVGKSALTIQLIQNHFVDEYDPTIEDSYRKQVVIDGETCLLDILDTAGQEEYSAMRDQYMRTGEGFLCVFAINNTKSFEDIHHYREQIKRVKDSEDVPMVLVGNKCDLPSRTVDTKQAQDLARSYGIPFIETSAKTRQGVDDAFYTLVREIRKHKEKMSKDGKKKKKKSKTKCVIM
Bio-layer interferometry assay (BLI), a label-free technology, was used to measure the biomolecular interaction between KRAS and compound 0375-0604. In this study, the His-labeled KRAS protein was immobilized on the Ni-NTA (NTA) Biosensors. […] Experimental data for association and dissociation are represented on the left and right side.

A further test deals with H460 cells. The test can be described thus: MTT cell viability assay, H460. Particulars: Homo sapiens, NCI-H460, H460 (KRAS Q61H). It counts as cell-based. The method, then: as §1, §2, §3
Another test has as its system GTP-bound KRAS. The test can be described thus: RAS-binding domain pull-down (RBD:PD) assay. It counts as cell-based. The conditions noted are these: H358 cells, 24 h, 50 and 100 μM. As to the method: RAS activity was detected using the RAS Activation Assay Kit from Upstate-Millipore. The whole cell lysates were incubated with Glutathione S-transferase-[…]-binding domain (GST-RBD) and glutathione beads for 1 h. Agarose beads were pelleted by centrifugation and washed 3 times with Mg^2+ lysis buffer. Agarose beads were re-suspended in loading buffer. Samples were analyzed by the western blotting as previously described and blots probed using anti-KRAS antibody (sc-30, SANTA).
KRAS mutant cells (H358) were treated with compound 0375-0604 for 24 h. After 24 h treatment, cells were collected and determined by a RAS-binding domain pull-down (RBD:PD) assay and immunoblotting with a KRAS-specific antibody.

Test [3] deals with H358 cells. The test can be described thus: Cell cycle analysis by PI staining and flow cytometry. It counts as cell-based. The conditions noted are these: H358 cells, 50, 100 μM, 24 h. The method, then: H358 cells were plated with 2.0×10^5 cells/well at a 6-well plate and cultured overnight for attachment. After treatment with compound 0375-0604 at 0, 50, 100 μM for 24 h, all cells were harvested by trypsin, and centrifuged at 1000 rpm, at room temperature for 5 min. Cells pellets were re-suspended in 70% ethanol at 4° C. for 30 min. Cells were centrifuged at 1000 rpm for 5 min to remove all the ethanol. Each cell pellet was re-suspended in 300 μL Propidium iodide (PI) staining solution at 37° C. for 30 min in the dark. The cells were then washed twice with phosphate-buffered saline (PBS). Finally, cells were re-suspended in 300 μL PBS and transferred to the flow cytometer (BD FACS Aria III).
H358 cells were treated with compound 0375-0604 at different concentrations (0, 50, 100 μM) for 24 h, and stained with Propidium iodide (PI). The samples were analyzed by flow cytometry.

Consider `Nc1ccc(Sc2nc3ccccc3s2)c(Cl)c1` [compound 0375-0604], for which, in test [1], the “level of phosphorylation of CRAF (p-CRAF)” value is “decreased”. The IC50 was over 100 µM with H358 cells [2] (24 h); over 100 µM with H358 cells [2] (48 h); 63.8 ± 3.89 µM in the test on H358 cells [2] (72 h); over 100 µM with H2122 cells (24 h); over 100 µM in the test with H2122 cells (48 h); 39.6 ± 3.09 µM in the test on H2122 cells (72 h). Moreover, the IC50 with H460 cells (24 h) is over 100 µM; with H460 cells (48 h) it was 100 ± 13.3 µM; in the test on H460 cells (72 h), 66 ± 11.8 µM. In addition, the koff at KRAS (1.56-50 μM compound) turned out to be 2.12E-01 S^−1. On KRAS (1.56-50 μM compound), this molecule yielded a kon of 1.83E+04 M^−1 S^−1. In addition, the dissociation constant (Kd) at KRAS (calculated as ratio of koff to kon) is 11.6 µM. The “level of GTP-bound KRAS” value with GTP-bound KRAS is on record as “inhibited”. In the test on H358 cells [3], the “percentage of cells in G0/G1 phase” value is recorded as “slightly decreased”. The “percentage of cells in G2/M phase” value with H358 cells [3] is on record as “increased”.
